According to patent US20240391937A1, “BICYCLIC DERIVATIVE PARP INHIBITOR AND USE THEREOF” (XIZANG HAISCO PHARMACEUTICAL CO., LTD., priority 2021, published 2024):
Like-named read-outs stand apart in the source and are kept apart here.

What was measured:
PARP-1 enzyme = target: T1, PARP-1 enzyme (Homo sapiens, UniProt P09874); test: PARP-1 enzyme activity test (BPS Bioscience chemiluminescence kit); assay type: biochemical
T1 construct: purchased BPS Bioscience
Method: PARP-1 chemical […] detection kit was purchased from BPS Bioscience. The histone solution in the kit was diluted 5× with 1×PBS, and 25 μL of the diluted histone solution was added to a microwell plate and incubated overnight at 4° C. After the incubation, the plate was washed three times with PBST (0.05% Tween-20). 100 μL of the blocking solution was added to the microwell plate and incubated at 25° C. for 90 minutes. After the incubation, the plate was washed three times with PBST. 2.5 μL of compounds at different concentrations diluted in test buffer and 12.5 μL of substrate mixed solution (1.25 μL 10× PARP test buffer; 1.25 μL 10× PARP test mixed solution; 2.5 μL Activated DNA, 7.5 μL double-distilled water) were added to the microwell plate. The PARP-1 enzyme was diluted to 2 ng/μL, 10 μL of the diluent was added to the microwell plate, and the reaction system was incubated at 25° C. for 60 minutes.
After the incubation, the plate was washed three times with PBST. Streptavidin-HRP was diluted 50× with a blocking solution, and 25 μL of the diluent was added to the microwell plate and incubated at 25° C. for 30 minutes. After the incubation, the plate was washed three times with PBST. ELISA ECL substrate A and substrate B were mixed at a ratio of 1:1 (v/v), 50 μL of the mixture was added to the microwell plate, and the chemiluminescence value was read.
The inhibition rate was calculated according to formula 1, where RLUsample was the readout of the compound well, RLUmax was the readout of the solvent control well, and RLUmin was the readout of the control well without the PARP-1 enzyme. Curve fitting was performed by four parameters (log (inhibitor) vs. response—Variable slope) using GraphPad Prism software, and the IC50 value was calculated.

MDA-MB-436 cells = test: MDA-MB-436 cell activity test (CellTiter-Glo, 7 days); assay type: cell-based; conditions: Homo sapiens; for IC50: MDA-MB-436, 168 h, 7 days incubation; for inhibition at 10 µM: MDA-MB-436 cells, read-out: Max inh. % 10 μM
Method: Breast tumor cells MDA-MB-436 were purchased from ATCC, the culture medium was Leibovitz's L-15+10% FBS, and the cells were cultured in a CO2-free incubator at 37° C. On day 1, the cells in the exponential growth phase were collected, and the cell suspension was adjusted to 4000 cells/135 μL with the culture medium. 135 μL of the cell suspension was added to each well of a 96-well cell culture plate and incubated overnight. On day 2, compounds at different concentrations were added, and the plate was placed in the incubator and incubated for 7 days. After the incubation was completed, according to operation instructions for a CellTiter-Glo kit (Promega, G7573), 75 μL of CTG solution, which was already pre-melted and equilibrated to room temperature, was added to each well, and the mixture was uniformly mixed for 2 min using a microplate shaker. The plate was placed at room temperature for 10 min, and then […] were measured using an Envision2104 plate reader (PerkinElmer). The inhibition rate was calculated using formula (1), where RLUcompound was the readout of the drug treated group, RLUcontrol was the average value of the vehicle control group, and RLUblank was the average value of the cell-free well. The IC50 value was calculated using GraphPad Prism software.

[1] = Pharmacokinetic test in mice; assay type: in vivo, ICR mice
Method: • 3.1 Experimental animals: male ICR mice, 20-25 g, 18 mice/compound. purchased from Chengdu Ddossy Experimental Animals Co., Ltd. • 3.2 Experimental design: on the day of the test, 18 ICR mice were randomly grouped according to their body weights. the animals were fasted with water available for 12 to 14 h one day before the administration, and were fed 4 h after the administration. [table] Before and after the administration, 0.06 mL of blood was taken from the orbit of the animals under isoflurane anesthesia and placed in an EDTAK2 centrifuge tube. The blood was centrifuged at 5000 rpm and 4° C. for 10 min to collect plasma. The blood collection time points for the intravenous group and intragastric administration group were: 0 min, 5 min, 15 min, 30 min, 1 h, 2 h, 4 h, 6 h, 8 h, and 24 h. Before analysis and detection, all samples were stored at −80° C., and a quantitative analysis of samples was performed using LC-MS/MS.

[2] = Pharmacokinetic test in rats; assay type: in vivo, SD rats
Method: • 1.1 Experimental animals: male SD rats, about 220 g, 6-8 weeks old, 6 rats/compound, purchased from Chengdu Ddossy Experimental Animals Co., Ltd. • 1.2 Experimental design: on the day of the test, 6 SD rats were randomly grouped according to their body weight; the animals were fasted with water available for 12 to 14 h one day before the administration, and were fed 4 h after the administration.
Before and after the administration, 0.15 ml of blood was taken from the orbit of the animals under isoflurane anesthesia and placed in an EDTAK2 centrifuge tube. The blood was centrifuged at 5000 rpm and 4° C. for 10 min to collect plasma. The blood collection time points for the intravenous administration group and intragastric administration group were: 0, 5 min, 15 min, 30 min, 1 h, 2 h, 4 h, 6 h, 8 h, and 24 h. Before analysis and detection, all samples were stored at −80° C., and a quantitative analysis of samples was performed using LC-MS/MS.

[3] = grades, read-out: PARP-1 enzyme activity IC50
[4] = values in text, read-out: IC50 values on PARP-1
[5] = male, ICR, mouse, iv, mice, i.v. 2.5 mg/kg, plasma
[6] = male, SD, rat, iv, rats, i.v. 2.5 mg/kg, plasma

T1 sequence (P09874 whole entry): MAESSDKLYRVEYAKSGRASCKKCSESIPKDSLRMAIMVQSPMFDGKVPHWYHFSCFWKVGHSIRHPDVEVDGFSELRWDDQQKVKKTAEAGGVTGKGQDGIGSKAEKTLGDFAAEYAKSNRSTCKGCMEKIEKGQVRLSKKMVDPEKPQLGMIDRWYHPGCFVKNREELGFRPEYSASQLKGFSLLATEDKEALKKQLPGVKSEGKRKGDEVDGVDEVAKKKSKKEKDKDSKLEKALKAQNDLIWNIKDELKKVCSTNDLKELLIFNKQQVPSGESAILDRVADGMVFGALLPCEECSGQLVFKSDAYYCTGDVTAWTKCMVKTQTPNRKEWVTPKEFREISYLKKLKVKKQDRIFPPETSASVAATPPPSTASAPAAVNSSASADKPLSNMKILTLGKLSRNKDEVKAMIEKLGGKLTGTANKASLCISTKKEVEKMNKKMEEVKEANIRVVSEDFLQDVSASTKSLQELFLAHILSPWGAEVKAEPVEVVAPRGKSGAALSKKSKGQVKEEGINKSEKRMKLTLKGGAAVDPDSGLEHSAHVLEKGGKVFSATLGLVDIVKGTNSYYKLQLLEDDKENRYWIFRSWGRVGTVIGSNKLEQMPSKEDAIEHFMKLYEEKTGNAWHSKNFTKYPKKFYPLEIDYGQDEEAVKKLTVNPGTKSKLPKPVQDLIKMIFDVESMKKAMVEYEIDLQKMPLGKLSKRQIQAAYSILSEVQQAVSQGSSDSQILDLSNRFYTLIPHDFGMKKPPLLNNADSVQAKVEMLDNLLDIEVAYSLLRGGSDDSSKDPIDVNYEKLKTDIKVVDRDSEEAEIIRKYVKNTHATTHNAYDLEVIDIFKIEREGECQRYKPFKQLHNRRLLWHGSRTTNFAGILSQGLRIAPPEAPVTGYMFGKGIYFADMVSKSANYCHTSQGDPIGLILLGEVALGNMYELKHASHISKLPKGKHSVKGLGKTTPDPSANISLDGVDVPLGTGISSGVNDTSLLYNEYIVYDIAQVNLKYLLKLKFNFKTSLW

Row | Structure (SMILES) | IC50 (PARP-1 enzyme; [3]) [nM] | IC50 (PARP-1 enzyme; [4]) [nM] | IC50 (MDA-MB-436 cells) [nM] | pharmacokinetic characteristics in rats ([2]; conclusion in words) | AUC(0-t) [2, 6] [µg·h/mL] | clearance [2, 6] [mL/min/kg] | Vd ([2]; male, SD, rat, iv, rats, i.v. 2.5 mg/kg, plasma, read-out: Vdss) [L/kg] | AUC(0-t) ([2]; male, SD, rat, po, rats, i.g. 10 mg/kg, plasma) [µg·h/mL] | F ([2]; rats, i.g. 10 mg/kg) [%] | inhibition at 10 µM (MDA-MB-436 cells) [%] | pharmacokinetic characteristics in mice ([1]; conclusion in words) | AUC(0-t) [1, 5] [µg·h/mL] | clearance [1, 5] [mL/min/kg] | Vd ([1]; male, ICR, mouse, iv, mice, i.v. 2.5 mg/kg, plasma, read-out: Vdss) [L/kg] | AUC(0-t) ([1]; male, ICR, mouse, po, mice, i.g. 10 mg/kg, plasma) [µg·h/mL] | F ([1]; mice, i.g. 10 mg/kg) [%]
1 | Cn1cc(NC(=O)c2ccc(N3CCN(Cc4cnc5cc(C6CC6)c(=O)[nH]c5c4)CC3)cn2)cn1 [Compound 6, 5-(4-((7-cyclopropyl-6-oxo-5,6-dihydro-1,5-naphthyridin-3-yl)methyl)piperazin-1-yl)-N-(1-methyl-1H-pyrazol-4-yl)picolinamide] | ≤ 1 | 0.54 | 2.8 | – | – | – | – | – | – | 85.4 | – | – | – | – | – | –
2 | O=C(NC1CC1)c1ccc(C2=CCN(Cc3cnc4cc(C5CC5)c(=O)[nH]c4c3)CC2)cn1 [Compound 3, N-cyclopropyl-1′-((7-cyclopropyl-6-oxo-5,6-dihydro-1,5-naphthyridin-3-yl)methyl)-1′,2′,3′,6′-tetrahydro-[3,4′-bipyridine]-6-carboxamide] | ≤ 1 | 0.6 | 4.5 | – | – | – | – | – | – | 82.1 | good pharmacokinetic characteristics | 108 | 0.346 | 0.207 | 707 | 164

The next lines start with results.

Row | IC50 (PARP-1 enzyme; [3]) [nM] | IC50 (PARP-1 enzyme; [4]) [nM] | IC50 (MDA-MB-436 cells) [nM] | pharmacokinetic characteristics in rats ([2]; conclusion in words) | AUC(0-t) [2, 6] [µg·h/mL] | clearance [2, 6] [mL/min/kg] | Vd ([2]; male, SD, rat, iv, rats, i.v. 2.5 mg/kg, plasma, read-out: Vdss) [L/kg] | AUC(0-t) ([2]; male, SD, rat, po, rats, i.g. 10 mg/kg, plasma) [µg·h/mL] | F ([2]; rats, i.g. 10 mg/kg) [%] | Structure (SMILES) | inhibition at 10 µM (MDA-MB-436 cells) [%] | pharmacokinetic characteristics in mice ([1]; conclusion in words) | AUC(0-t) [1, 5] [µg·h/mL] | clearance [1, 5] [mL/min/kg] | Vd ([1]; male, ICR, mouse, iv, mice, i.v. 2.5 mg/kg, plasma, read-out: Vdss) [L/kg] | AUC(0-t) ([1]; male, ICR, mouse, po, mice, i.g. 10 mg/kg, plasma) [µg·h/mL] | F ([1]; mice, i.g. 10 mg/kg) [%]
3 | – | 1.2 | 1.1 | – | – | – | – | – | – | O=c1[nH]c2cc(CN3CCN(c4cn5cc(C(F)(F)F)nc5cn4)CC3)cnc2cc1C1CC1 [Compound 8, 3-cyclopropyl-7-((4-(2-(trifluoromethyl)imidazo[1,2-a]pyrazin-6-yl)piperazin-1-yl)methyl)-1,5-naphthyridin-2(1H)-one] | 97.4 | – | – | – | – | – | –
4 | ≤ 1 | 0.74 | 5.6 | – | – | – | – | – | – | O=C(NC1CC1)c1ccc(N2CCN(Cc3cnc4cc(C5CC5)c(=O)[nH]c4c3)CC2)cn1 [Compound 5, N-cyclopropyl-5-(4-((7-cyclopropyl-6-oxo-5,6-dihydro-1,5-naphthyridin-3-yl)methyl)piperazin-1-yl)picolinamide] | 80.7 | – | – | – | – | – | –
5 | ≤ 1 | 0.9 | 5.1 | good pharmacokinetic characteristics | 70.8 | 0.585 | 0.169 | 206 | 72.6 | CNC(=O)c1ccc(N2CCN(Cc3cnc4cc(C5CC5)c(=O)[nH]c4c3)CC2)cn1 [Compound 2, 5-(4-((7-cyclopropyl-6-oxo-5,6-dihydro-1,5-naphthyridin-3-yl)methyl)piperazin-1-yl)-N-methylpicolinamide] | 86.3 | – | – | – | – | – | –
